Results from patent EP4512427A1, “ANTIBODY-DRUG CONJUGATES BASED ON MOLECULAR GLUE DEGRADERS AND USES THEREOF” (Mablink Bioscience, priority 2023, dated 2025).
pIC50: −log10 of the molar value.

Key:
HT-29 = assay: In vitro cytotoxicity assay (MTT); type: cell-based; conditions: Homo sapiens, 144 h, 6 days incubation
Method in brief: (§1)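 Six-day exposure to serially diluted compound, begun 24 h after seeding (1000–10 000 cells/well), preceded MTT staining. Dissolved formazan was quantified at 570 nm against a 690 nm reference, and IC50 was fitted versus untreated control.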

Caco-2 = assay: In vitro cytotoxicity assay (MTT); type: cell-based; conditions: Homo sapiens, 144 h, 6 days incubation
Method in brief: as §1

OE-19 = assay: In vitro cytotoxicity assay (MTT); type: cell-based; conditions: Homo sapiens, OE19, 144 h, 6 days incubation
Method in brief: as §1

KB-1 = assay: In vitro cytotoxicity assay (MTT); type: cell-based; conditions: Homo sapiens, KB16, 144 h, 6 days incubation
Method in brief: as §1

A549 = assay: In vitro cytotoxicity assay (MTT); type: cell-based; conditions: Homo sapiens, 144 h, 6 days incubation
Method in brief: as §1

HCT-116 = assay: In vitro cytotoxicity assay (MTT); type: cell-based; conditions: Homo sapiens, 144 h, 6 days incubation
Method in brief: as §1

MCF-7 = assay: In vitro cytotoxicity assay (MTT); type: cell-based; conditions: Homo sapiens, MCF7, 144 h, 6 days incubation
Method in brief: as §1

BXPC3 = assay: In vitro cytotoxicity assay (MTT); type: cell-based; conditions: Homo sapiens, BXPC-3, 144 h, 6 days incubation
Method in brief: as §1

MDR1 = target: T1, MDR1 (Homo sapiens, UniProt P08183); assay: MDR1 efflux substrate assay in MDCK-MDR1; type: in vitro ADME; conditions: dog, MDCK-MDR1, 5µM, 60 min, pH 7.4
T1 construct: host or cells: MDCK-MDR1 (Preadyport)
T1 sequence (P08183 whole entry): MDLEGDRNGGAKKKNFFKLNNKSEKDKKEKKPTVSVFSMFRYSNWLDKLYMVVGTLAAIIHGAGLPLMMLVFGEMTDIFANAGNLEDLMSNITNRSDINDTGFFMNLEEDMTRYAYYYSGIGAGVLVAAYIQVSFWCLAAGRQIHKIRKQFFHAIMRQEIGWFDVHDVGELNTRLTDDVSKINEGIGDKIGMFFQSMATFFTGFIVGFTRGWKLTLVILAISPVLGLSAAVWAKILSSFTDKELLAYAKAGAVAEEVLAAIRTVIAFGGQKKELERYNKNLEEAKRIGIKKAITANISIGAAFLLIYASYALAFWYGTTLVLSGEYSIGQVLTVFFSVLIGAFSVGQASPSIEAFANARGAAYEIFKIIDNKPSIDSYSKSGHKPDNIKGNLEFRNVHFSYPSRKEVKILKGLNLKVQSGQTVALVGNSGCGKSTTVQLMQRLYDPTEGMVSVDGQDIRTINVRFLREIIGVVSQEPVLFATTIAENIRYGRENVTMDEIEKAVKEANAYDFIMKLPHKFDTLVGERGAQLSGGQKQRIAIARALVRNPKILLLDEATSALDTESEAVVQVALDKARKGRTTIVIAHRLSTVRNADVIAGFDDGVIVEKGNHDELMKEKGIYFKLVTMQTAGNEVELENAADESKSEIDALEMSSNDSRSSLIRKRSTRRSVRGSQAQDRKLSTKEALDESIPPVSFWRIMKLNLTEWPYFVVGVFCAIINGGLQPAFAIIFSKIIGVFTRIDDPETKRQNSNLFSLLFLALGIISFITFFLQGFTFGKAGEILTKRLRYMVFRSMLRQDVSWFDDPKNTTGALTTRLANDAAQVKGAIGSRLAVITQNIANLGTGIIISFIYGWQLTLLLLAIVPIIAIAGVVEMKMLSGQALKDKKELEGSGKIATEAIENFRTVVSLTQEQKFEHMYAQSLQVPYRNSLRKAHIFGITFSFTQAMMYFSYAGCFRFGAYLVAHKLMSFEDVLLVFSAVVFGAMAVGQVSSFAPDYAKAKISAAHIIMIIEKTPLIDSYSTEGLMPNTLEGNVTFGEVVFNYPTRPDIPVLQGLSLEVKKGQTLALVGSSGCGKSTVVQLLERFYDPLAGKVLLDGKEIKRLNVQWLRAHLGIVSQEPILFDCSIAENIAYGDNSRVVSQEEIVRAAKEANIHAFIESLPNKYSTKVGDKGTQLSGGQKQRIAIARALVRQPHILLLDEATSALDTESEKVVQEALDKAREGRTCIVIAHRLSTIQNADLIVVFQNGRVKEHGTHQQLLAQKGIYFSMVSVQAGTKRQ
Protocol: MDR1 and BCRP efflux substrate assays were conducted in MDCK-MDR1 and MDCK-BCRP in vitro models (Preadyport™, Solvo Biotech) at Symeres (Nederland). Compound of the invention (donor well concentration of 5µM) were incubated in cell monolayer 24-transwell Preadyport system, using Preadyport recommended pH 7.4 assay buffer (donor and receiver wells). After 60 min of incubation (no shaking), samples are collected and suspended into triple volume of 66% cold acetonitrile. Samples are stored at -20°C until thawed, centrifuged and analyzed by LC-MS. Quinidine was used a positive control for the MDR1 assay, and prazosin was used as a positive control for the BCRP assay. Exatecan was used as a control, known not to be an MDR1 substrate. Residual DMSO content from compounds stock solutions was below 1% (v/v). The assay was performed in duplicate. The quantification of test compounds in donor or receptor compartment is conducted using relative LC/MS peak areas (samples of initial incubation solutions are used as a single point calibrator), without any spiked standard samples. The data is used for estimating apparent permeability (Papp) and calculation of efflux ratio.

340 protein kinases = assay: Kinase screening assay (radiometric 33PanQinase); type: biochemical, human; conditions: 10 µM; most inhibited kinases: CMGC family, particularly CDKs (23 out of the 30 most inhibited were CDK/Cyclin complexes)
Protocol: Compound 2384 according to the disclosure was subjected to kinase screening assays (performed at Reaction Biology, Germany). The screening assay was performed at a final compound concentration of 10 µM. A radiometric protein kinase assay (33PanQinase® ActivityAssay) was used for measuring the kinase activity of 340 protein kinases. All kinase assays were performed in 96-well FlashPlates™ from Perkin Elmer (Boston, MA, USA) in a 50 µL reaction volume. […] All PKC assays (except the PKC-mu and the PKC-nu assay) additionally contained 1 mM CaCl2, 4 mM EDTA, 5 µg/m! Phosphatidylserine and 1 µg/m! 1,2-Dioleyl-glycerol. The CAMK1D, CAMK2A, CAMK2B, CAMK2D, CAMK2G, CAMK4, CAMKK1, CAMKK2, DAPK2, EEF2K, MYLK, MYLK2 and MYLK3 assays additionally contained 1 µg/ml Calmodulin and 0.5 mM CaCl2. The PRKG1 and PRKG2 assays additionally contained 1 µM cGMP. The DNA-PK assay additionally contained 2.5 µg/ml DNA. The protein kinase reaction cocktails were incubated at 30°C for 60 minutes. The reaction was stopped with 50 µl of 2 % (v/v) H3PO4, plates were aspirated and washed two times with 200 µL 0.9 % (w/v) NaCl. Incorporation of 33Pi (counting of "cpm") was determined with a microplate scintillation counter (Microbeta, Wallac). All protein kinase assays were performed with a BeckmanCoulter Biomek 2000/SL robotic system. […]

## N[C@H]1CC[C@H](Nc2nc(NCc3ccc(-c4ccccn4)cc3)n3ncc(Br)c3n2)CC1 [Compound 2384]
HT-29
  pIC50: 9.66
Caco-2
  pIC50: 8.18
OE-19
  pIC50: 8.65
KB-1
  pIC50: 9.42
A549
  pIC50: 9.25
HCT-116
  pIC50: 8.92
MCF-7
  pIC50: 8.47
BXPC3
  pIC50: 8.84
MDR1; read-out: Papp A (donor) to B (acceptor)
  Papp A→B at 1 h, 5 µM: < 0.25 ×10⁻⁶ cm/s
MDR1; read-out: Papp B (acceptor) to A (donor)
  Papp B→A at 1 h, 5 µM: 36.9 ×10⁻⁶ cm/s
340 protein kinases
  inhibition of kinase activity: more than 90%
